Assays:
Experiment in all cases: KAM-matrix competition in K562 lysate;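 on 0.001 uM KAM: median log10 fold change of treatment over DMSO control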;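 on 0.01 uM KAM: median log10 fold change of treatment over DMSO control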;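 on 0.1 uM KAM: median log10 fold change of treatment over DMSO control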;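 on 1 uM KAM: median log10 fold change of treatment over DMSO control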;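 on 10 uM KAM: median log10 fold change of treatment over DMSO control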
Type in all cases: binding
ADRBK1 = biological target: T1, ADRBK1 (Homo sapiens, UniProt P25098);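 on 0.001 uM KAM: median log10 fold change of treatment over DMSO control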;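 on 0.01 uM KAM: median log10 fold change of treatment over DMSO control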;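 on 0.1 uM KAM: median log10 fold change of treatment over DMSO control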;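 on 1 uM KAM: median log10 fold change of treatment over DMSO control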;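 on 10 uM KAM: median log10 fold change of treatment over DMSO control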
T1 construct: endogenous in cells; host or cells: K562
T1 sequence (P25098 1-689): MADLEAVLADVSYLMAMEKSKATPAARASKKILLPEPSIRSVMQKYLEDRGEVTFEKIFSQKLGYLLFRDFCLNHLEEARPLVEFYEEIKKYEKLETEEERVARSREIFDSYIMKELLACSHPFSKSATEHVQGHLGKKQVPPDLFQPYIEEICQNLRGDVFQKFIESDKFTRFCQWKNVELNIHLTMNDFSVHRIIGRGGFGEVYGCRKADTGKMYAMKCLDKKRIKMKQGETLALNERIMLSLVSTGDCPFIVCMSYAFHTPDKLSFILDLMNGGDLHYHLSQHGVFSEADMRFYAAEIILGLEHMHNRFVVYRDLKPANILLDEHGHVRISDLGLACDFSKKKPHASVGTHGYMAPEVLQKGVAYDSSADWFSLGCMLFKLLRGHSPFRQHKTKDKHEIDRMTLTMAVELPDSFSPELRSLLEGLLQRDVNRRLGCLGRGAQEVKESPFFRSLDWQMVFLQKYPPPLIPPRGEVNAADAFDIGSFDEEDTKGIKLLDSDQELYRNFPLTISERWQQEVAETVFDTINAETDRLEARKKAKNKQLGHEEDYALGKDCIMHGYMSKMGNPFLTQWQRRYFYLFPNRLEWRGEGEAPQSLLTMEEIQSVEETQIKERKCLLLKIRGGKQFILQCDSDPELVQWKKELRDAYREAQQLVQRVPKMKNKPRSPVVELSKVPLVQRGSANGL
Method: (§1) Supplement 12953_2017_125_MOESM1_ESM.zip/MS_Supp Info.xlsx, sheet "KAM" | column: 10 uM KAM; 1 uM KAM; 0.1 uM KAM; 0.01 uM KAM; 0.001 uM KAM; RB50

SRC = biological target: T2, SRC (Homo sapiens, UniProt P12931)
T2 construct: endogenous in cells; host or cells: K562
T2 sequence (P12931 whole entry): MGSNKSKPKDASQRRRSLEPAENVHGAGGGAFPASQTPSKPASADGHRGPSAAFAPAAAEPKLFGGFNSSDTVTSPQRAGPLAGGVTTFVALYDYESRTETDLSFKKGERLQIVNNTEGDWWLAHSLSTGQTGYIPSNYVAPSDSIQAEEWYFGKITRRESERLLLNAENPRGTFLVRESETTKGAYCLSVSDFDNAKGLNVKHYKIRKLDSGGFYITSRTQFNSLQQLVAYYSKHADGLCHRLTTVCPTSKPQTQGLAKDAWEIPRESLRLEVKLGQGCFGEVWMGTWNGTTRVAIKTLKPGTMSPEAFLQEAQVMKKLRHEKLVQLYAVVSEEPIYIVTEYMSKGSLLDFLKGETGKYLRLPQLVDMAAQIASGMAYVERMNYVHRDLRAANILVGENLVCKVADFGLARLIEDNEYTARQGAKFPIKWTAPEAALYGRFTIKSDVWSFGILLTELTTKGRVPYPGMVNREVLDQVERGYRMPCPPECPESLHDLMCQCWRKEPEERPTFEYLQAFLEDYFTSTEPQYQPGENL
Method: as §1

BMPR1A = biological target: T3, BMPR1A (Homo sapiens, UniProt P36894)
T3 construct: endogenous in cells; host or cells: K562
T3 sequence (P36894 24-532): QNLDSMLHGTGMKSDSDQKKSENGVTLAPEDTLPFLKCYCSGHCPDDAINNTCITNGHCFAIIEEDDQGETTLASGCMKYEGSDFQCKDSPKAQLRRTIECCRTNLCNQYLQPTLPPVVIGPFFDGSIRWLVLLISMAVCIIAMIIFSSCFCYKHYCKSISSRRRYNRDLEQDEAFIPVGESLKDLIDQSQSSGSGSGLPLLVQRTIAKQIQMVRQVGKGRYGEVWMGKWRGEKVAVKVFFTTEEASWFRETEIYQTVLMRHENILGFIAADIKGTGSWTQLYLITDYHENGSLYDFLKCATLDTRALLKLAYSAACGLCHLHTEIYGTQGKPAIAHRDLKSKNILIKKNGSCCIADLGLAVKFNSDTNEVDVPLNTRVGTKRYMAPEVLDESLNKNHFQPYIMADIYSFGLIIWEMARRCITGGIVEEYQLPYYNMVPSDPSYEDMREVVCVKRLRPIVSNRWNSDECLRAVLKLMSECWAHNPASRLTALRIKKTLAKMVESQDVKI
Method: as §1

ULK3 = biological target: T4, ULK3 (Homo sapiens, UniProt Q6PHR2)
T4 construct: endogenous in cells; host or cells: K562 cell lysate
T4 sequence (Q6PHR2 1-472): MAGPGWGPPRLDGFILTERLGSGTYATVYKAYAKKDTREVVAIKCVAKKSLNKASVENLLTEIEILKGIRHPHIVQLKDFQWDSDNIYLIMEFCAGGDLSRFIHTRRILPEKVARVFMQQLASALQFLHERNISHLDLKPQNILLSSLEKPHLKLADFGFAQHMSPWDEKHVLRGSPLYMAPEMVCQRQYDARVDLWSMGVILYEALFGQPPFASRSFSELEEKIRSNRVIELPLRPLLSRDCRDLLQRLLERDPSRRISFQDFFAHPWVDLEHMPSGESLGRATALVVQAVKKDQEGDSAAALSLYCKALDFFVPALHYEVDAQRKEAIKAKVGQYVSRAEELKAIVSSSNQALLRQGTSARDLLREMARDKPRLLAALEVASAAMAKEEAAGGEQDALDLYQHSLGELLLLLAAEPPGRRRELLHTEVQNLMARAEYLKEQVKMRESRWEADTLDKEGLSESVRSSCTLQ
Method: as §1

BCR = biological target: T5, BCR (Homo sapiens, UniProt P00519+P11274)
T5 construct: ABL1 (fusion partner in BCR-ABL); endogenous in cells; host or cells: K562 lysate
Method: as §1

RIOK2 = biological target: T6, RIOK2 (Homo sapiens, UniProt Q9BVS4)
T6 construct: endogenous in cells; host or cells: K562
T6 sequence (Q9BVS4 whole entry): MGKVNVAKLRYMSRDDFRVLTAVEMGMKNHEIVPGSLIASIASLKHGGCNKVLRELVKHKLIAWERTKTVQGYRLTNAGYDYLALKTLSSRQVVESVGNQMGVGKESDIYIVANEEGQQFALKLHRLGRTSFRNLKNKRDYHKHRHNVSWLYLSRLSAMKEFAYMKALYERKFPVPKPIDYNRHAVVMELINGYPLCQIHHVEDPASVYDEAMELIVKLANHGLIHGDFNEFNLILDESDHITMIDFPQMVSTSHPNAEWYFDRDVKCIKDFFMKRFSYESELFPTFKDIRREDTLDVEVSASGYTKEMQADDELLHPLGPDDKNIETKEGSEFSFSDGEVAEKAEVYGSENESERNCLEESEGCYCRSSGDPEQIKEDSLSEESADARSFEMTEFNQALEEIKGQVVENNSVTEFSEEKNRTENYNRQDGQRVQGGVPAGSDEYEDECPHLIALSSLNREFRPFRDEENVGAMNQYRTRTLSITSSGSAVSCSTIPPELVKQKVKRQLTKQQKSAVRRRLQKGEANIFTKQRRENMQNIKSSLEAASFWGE
Method: as §1

PKN2 = biological target: T7, PKN2 (Homo sapiens, UniProt Q16513);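 on 0.001 uM KAM: median log10 fold change of treatment over DMSO control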;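 on 0.01 uM KAM: median log10 fold change of treatment over DMSO control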;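 on 0.1 uM KAM: median log10 fold change of treatment over DMSO control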;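 on 1 uM KAM: median log10 fold change of treatment over DMSO control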;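 on 10 uM KAM: median log10 fold change of treatment over DMSO control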
T7 construct: endogenous in cells; host or cells: K562
T7 sequence (Q16513 whole entry): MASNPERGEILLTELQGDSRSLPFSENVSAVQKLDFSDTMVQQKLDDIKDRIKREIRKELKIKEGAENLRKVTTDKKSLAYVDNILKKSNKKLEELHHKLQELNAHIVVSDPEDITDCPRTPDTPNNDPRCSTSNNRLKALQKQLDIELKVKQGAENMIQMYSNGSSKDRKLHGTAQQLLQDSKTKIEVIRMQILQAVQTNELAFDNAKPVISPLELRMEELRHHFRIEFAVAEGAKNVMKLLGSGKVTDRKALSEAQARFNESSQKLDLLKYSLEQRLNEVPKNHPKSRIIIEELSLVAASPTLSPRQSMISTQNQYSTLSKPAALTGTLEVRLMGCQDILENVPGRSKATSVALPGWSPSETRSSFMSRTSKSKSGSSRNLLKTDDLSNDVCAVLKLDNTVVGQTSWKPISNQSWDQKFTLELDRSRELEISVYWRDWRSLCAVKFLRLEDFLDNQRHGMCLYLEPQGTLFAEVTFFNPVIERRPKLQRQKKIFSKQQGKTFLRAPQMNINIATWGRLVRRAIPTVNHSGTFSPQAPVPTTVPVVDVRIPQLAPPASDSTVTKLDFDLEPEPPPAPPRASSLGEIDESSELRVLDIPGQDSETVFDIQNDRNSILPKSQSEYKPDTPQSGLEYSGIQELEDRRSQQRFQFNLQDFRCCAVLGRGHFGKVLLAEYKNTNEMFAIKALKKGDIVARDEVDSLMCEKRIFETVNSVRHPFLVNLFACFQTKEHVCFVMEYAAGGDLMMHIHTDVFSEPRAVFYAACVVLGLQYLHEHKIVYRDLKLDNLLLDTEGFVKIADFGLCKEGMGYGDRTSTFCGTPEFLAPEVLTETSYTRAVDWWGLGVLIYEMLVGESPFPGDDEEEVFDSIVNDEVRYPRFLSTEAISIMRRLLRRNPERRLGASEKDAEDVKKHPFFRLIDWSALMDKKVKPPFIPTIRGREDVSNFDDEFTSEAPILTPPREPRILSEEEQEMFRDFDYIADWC
Method: as §1

MAPKAPK2 = biological target: T8, MAPKAPK2 (Homo sapiens, UniProt P49137);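 on 0.001 uM KAM: median log10 fold change of treatment over DMSO control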;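 on 0.01 uM KAM: median log10 fold change of treatment over DMSO control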;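 on 0.1 uM KAM: median log10 fold change of treatment over DMSO control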;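 on 1 uM KAM: median log10 fold change of treatment over DMSO control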;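 on 10 uM KAM: median log10 fold change of treatment over DMSO control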
T8 construct: endogenous in cells; host or cells: K562
T8 sequence (P49137 whole entry): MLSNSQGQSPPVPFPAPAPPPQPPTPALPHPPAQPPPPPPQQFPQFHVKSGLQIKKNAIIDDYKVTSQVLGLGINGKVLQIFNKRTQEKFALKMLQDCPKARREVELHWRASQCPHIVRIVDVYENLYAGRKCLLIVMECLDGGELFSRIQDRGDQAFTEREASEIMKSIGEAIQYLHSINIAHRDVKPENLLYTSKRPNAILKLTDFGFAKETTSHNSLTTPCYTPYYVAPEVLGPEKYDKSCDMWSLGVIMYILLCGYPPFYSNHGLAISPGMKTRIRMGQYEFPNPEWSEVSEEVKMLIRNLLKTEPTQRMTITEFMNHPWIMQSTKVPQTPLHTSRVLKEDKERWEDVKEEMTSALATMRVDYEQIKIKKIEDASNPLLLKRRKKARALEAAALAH
Method: as §1

PAK2 = biological target: T9, PAK2 (Homo sapiens, UniProt Q13177);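 on 0.001 uM KAM: median log10 fold change of treatment over DMSO control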;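 on 0.01 uM KAM: median log10 fold change of treatment over DMSO control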;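 on 0.1 uM KAM: median log10 fold change of treatment over DMSO control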;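 on 1 uM KAM: median log10 fold change of treatment over DMSO control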;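 on 10 uM KAM: median log10 fold change of treatment over DMSO control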
T9 construct: endogenous in cells; host or cells: K562
T9 sequence (Q13177 whole entry): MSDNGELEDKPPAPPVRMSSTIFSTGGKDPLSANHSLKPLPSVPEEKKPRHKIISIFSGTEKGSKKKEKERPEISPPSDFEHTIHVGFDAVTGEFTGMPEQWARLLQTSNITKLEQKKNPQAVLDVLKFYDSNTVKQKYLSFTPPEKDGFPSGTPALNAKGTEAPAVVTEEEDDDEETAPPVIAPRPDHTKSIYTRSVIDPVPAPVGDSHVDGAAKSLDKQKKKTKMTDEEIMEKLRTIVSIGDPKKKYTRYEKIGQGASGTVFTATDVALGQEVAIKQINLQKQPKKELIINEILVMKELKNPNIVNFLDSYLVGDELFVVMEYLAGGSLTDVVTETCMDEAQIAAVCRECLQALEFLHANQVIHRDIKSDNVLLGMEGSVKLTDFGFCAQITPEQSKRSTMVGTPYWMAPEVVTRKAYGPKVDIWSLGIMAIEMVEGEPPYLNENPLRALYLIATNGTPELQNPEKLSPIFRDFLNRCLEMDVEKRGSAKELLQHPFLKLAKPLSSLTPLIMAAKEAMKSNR
Method: as §1

RIPK2 = biological target: T10, RIPK2 (Homo sapiens, UniProt O43353)
T10 construct: endogenous in cells; host or cells: K562
T10 sequence (O43353 whole entry): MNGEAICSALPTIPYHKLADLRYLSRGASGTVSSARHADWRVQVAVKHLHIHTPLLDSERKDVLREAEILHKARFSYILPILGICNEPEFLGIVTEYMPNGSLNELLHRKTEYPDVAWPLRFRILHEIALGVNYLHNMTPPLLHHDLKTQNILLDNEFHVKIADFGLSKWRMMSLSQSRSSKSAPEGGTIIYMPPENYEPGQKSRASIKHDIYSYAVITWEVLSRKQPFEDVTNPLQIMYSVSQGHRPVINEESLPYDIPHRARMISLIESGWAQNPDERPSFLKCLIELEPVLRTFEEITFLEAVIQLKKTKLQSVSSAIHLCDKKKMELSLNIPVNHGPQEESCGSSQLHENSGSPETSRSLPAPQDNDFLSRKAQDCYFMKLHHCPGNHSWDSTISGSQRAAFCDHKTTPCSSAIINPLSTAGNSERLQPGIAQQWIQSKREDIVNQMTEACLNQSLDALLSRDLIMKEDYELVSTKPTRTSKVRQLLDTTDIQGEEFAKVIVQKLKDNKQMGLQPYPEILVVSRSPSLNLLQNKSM
Method: as §1

IGF1R = biological target: T11, IGF1R (Homo sapiens, UniProt P08069)
T11 construct: K562 cell pellets were thawed on ice and resuspended in cold Lysis buffer; endogenous in cells; host or cells: K562
Method: as §1

[1] = KAM 0.001-10 uM, read-out: RB50 (the source's name)
[2] = read-out: RB50 (the source's name)

N#CCc1ccc(Nc2nc(NCCCN)cc(Nc3cc(C4CC4)[nH]n3)n2)cc1 [KAM]
IC50 (ADRBK1; [1]): > 10 µM
0.001 uM KAM (ADRBK1; relative to 0 uM KAM = 0): 0.02352
0.01 uM KAM (ADRBK1; relative to 0 uM KAM = 0): 0.07327
0.1 uM KAM (ADRBK1; relative to 0 uM KAM = 0): 0.03347
1 uM KAM (ADRBK1; relative to 0 uM KAM = 0): 0.04428
10 uM KAM (ADRBK1; relative to 0 uM KAM = 0): 0.02417
median Log10 fold change (SRC; 0.001 uM KAM): -0.003111
median Log10 fold change (SRC; 0.01 uM KAM): -0.02243
median Log10 fold change (SRC; 0.1 uM KAM): -0.1125
median Log10 fold change (SRC; 1 uM KAM): -0.3083
median Log10 fold change (SRC; 10 uM KAM): -0.5006
IC50 (SRC; [2]): 1.1 µM
median Log10 fold change (BMPR1A; 0.001 uM KAM): -0.03052
median Log10 fold change (BMPR1A; 0.01 uM KAM): -0.01848
median Log10 fold change (BMPR1A; 0.1 uM KAM): -0.1062
median Log10 fold change (BMPR1A; 1 uM KAM): -0.2213
median Log10 fold change (BMPR1A; 10 uM KAM): -0.3941
IC50 (BMPR1A; [2]): 2.7 µM
median Log10 fold change (ULK3; 0.001 uM KAM): 0.008102
median Log10 fold change (ULK3; 0.01 uM KAM): 0.009404
median Log10 fold change (ULK3; 0.1 uM KAM): -0.1871
median Log10 fold change (ULK3; 1 uM KAM): -0.4491
median Log10 fold change (ULK3; 10 uM KAM): -0.5442
IC50 (ULK3; [2]): 0.405 µM
median Log10 fold change (BCR; 0.001 uM KAM): -0.02555
median Log10 fold change (BCR; 0.01 uM KAM): -0.005343
median Log10 fold change (BCR; 0.1 uM KAM): -0.1851
median Log10 fold change (BCR; 1 uM KAM): -0.427
median Log10 fold change (BCR; 10 uM KAM): -0.5622
median Log10 fold change (RIOK2; 0.001 uM KAM): -0.01457
median Log10 fold change (RIOK2; 0.01 uM KAM): -0.03291
median Log10 fold change (RIOK2; 0.1 uM KAM): -0.138
median Log10 fold change (RIOK2; 1 uM KAM): -0.3574
median Log10 fold change (RIOK2; 10 uM KAM): -0.5027
IC50 (RIOK2; [2]): 0.774 µM
IC50 (PKN2; [1]): > 10 µM
0.001 uM KAM (PKN2; relative to 0 uM KAM = 0): -0.006639
0.01 uM KAM (PKN2; relative to 0 uM KAM = 0): 0.00337
0.1 uM KAM (PKN2; relative to 0 uM KAM = 0): -0.04124
1 uM KAM (PKN2; relative to 0 uM KAM = 0): -0.08858
10 uM KAM (PKN2; relative to 0 uM KAM = 0): -0.1344
IC50 (MAPKAPK2; [1]): > 10 µM
0.001 uM KAM (MAPKAPK2; relative to 0 uM KAM = 0): 0.05207
0.01 uM KAM (MAPKAPK2; relative to 0 uM KAM = 0): -0.01973
0.1 uM KAM (MAPKAPK2; relative to 0 uM KAM = 0): 0.02471
1 uM KAM (MAPKAPK2; relative to 0 uM KAM = 0): 0.08157
10 uM KAM (MAPKAPK2; relative to 0 uM KAM = 0): 0.02045
IC50 (PAK2; [1]): > 10 µM
0.001 uM KAM (PAK2; relative to 0 uM KAM = 0): 0.07363
0.01 uM KAM (PAK2; relative to 0 uM KAM = 0): 0.03748
0.1 uM KAM (PAK2; relative to 0 uM KAM = 0): 0.116
1 uM KAM (PAK2; relative to 0 uM KAM = 0): 0.1461
10 uM KAM (PAK2; relative to 0 uM KAM = 0): 0.07777
median Log10 fold change (RIPK2; 0.001 uM KAM): 0.003964
median Log10 fold change (RIPK2; 0.01 uM KAM): -0.006424
median Log10 fold change (RIPK2; 0.1 uM KAM): -0.0711
median Log10 fold change (RIPK2; 1 uM KAM): -0.241
median Log10 fold change (RIPK2; 10 uM KAM): -0.4874
IC50 (RIPK2; [2]): 1.86 µM
median Log10 fold change (IGF1R; 0.001 uM KAM): -0.01905
median Log10 fold change (IGF1R; 0.01 uM KAM): -0.03637
median Log10 fold change (IGF1R; 0.1 uM KAM): -0.1832
median Log10 fold change (IGF1R; 1 uM KAM): -0.3556
median Log10 fold change (IGF1R; 10 uM KAM): -0.4489
IC50 (IGF1R; [2]): 0.696 µM

Reference: PMC5513037, “Examining the influence of specificity ligands and ATP-competitive ligands on the overall effectiveness of bivalent kinase inhibitors” (Proteome Science, 2017)
